Measurements reported in publication PMC6792352, “Limited Chemical Structural Diversity Found to Modulate Thyroid Hormone Receptor in the Tox21 Chemical Library” (Environmental Health Perspectives, 2019).
Structures can show the parent of a compound that is named as a salt.

Assay: in vitro
Conditions: rat, gh3-tre-luc cells, AC50 (uM) modified / 1000

Compared with `O=C(N[C@H](c1ccccc1)[C@@H]1CN2CCC1CC2)c1c(Cl)ccc(C(F)(F)F)c1Cl` [SSR 103800], `COC(=O)Cc1cccc2ccccc12` [Methyl 1-naphthaleneacetate] is higher in CC50 at 24 h: 9.74 µM for the first, greater than 90 µM for the second.

First: CCOc1ccc(N=Nc2ccc(/C=C/c3ccc(N=Nc4ccc(OCC)cc4)cc3S(=O)(=O)O)c(S(=O)(=O)O)c2)cc1 [C.I. Direct Yellow 12]
Second: CC1=NN(c2cc(Cl)c(S(=O)(=O)O)cc2Cl)C(=O)C1N=Nc1ccc(S(=O)(=O)O)cc1 (stereo not shown) [C.I. Acid Yellow 17, disodium salt]
The CC50 at 24 h of the first is 2.2-fold lower: 42.7 µM for the first, 92.5 µM for the second.

`C=C(C)c1cccc(C(C)(C)N=C=O)c1` [1-(2-Isocyanatopropan-2-yl)-3-(prop-1-en-2-yl)benzene] and `CCN(CC)C(C)C(=O)c1ccccc1` (stereo not shown) [Diethylpropion hydrochloride] cannot be ordered by CC50 at 24 h: greater than 90 µM for the first, greater than 50 µM for the second.

First: CCCCCCCCCCCCCCCCCC[N+](C)(C)C [N,N,N-Trimethyloctadecan-1-aminium chloride]
Second: CCCCCCCCCCO [1-Decanol]
The CC50 at 24 h of the first is lower: 13.4 µM for the first, greater than 90 µM for the second.

`C=CCC1([C@@H](C)CCC)C(=O)NC(=O)NC1=O` [S-(-)-Secobarbital] and `O=C(O)c1cc(=O)[nH]c(=O)[nH]1` [Orotic acid] cannot be ordered by CC50 at 24 h: greater than 90 µM for the first, greater than 90 µM for the second.

`CC(=O)Nc1c(I)cc(I)c(C(=O)O)c1I` [Acetrizoic acid] and `CC(=O)N(CC(C)C(=O)O)c1c(I)cc(I)c(N)c1I` (stereo not shown) [Iocetamic acid] cannot be ordered by CC50 at 24 h: greater than 50 µM for the first, greater than 20 µM for the second.

`C=C(C)CC(C)(C)C` [2,4,4-Trimethyl-1-pentene] and `CCNc1nc(Cl)nc(NC(C)(C)C)n1` [Terbutylazine] cannot be ordered by CC50 at 24 h: greater than 90 µM for the first, greater than 90 µM for the second.

`O=C1NCC2(CCN(CCc3ccccc3)CC2)O1` [Fenspiride hydrochloride] and `CCC(=O)OCCc1ccccc1` [2-Phenylethyl propionate] cannot be ordered by CC50 at 24 h: greater than 50 µM for the first, greater than 90 µM for the second.

`CCOC(=O)c1ncn2c1CN(C)C(=O)c1cc(F)ccc1-2` [Flumazenil] and `O=C(O)Cc1nn(Cc2ccc(Br)cc2F)c(=O)c2ccccc12` [Ponalrestat] cannot be ordered by CC50 at 24 h: greater than 50 µM for the first, greater than 50 µM for the second.

Going from `O=S(=O)(O)c1ccccc1` [Benzenesulfonic acid] to `S=C=NCCc1ccccc1` [Phenethyl isothiocyanate], the CC50 at 24 h falls from greater than 90 µM to 79.7 µM.

`O=c1[nH]c(=O)n([C@H]2C[C@H](O)[C@@H](CO)O2)cc1I` [Idoxuridine] and `Nc1ncnc2c1ncn2[C@@H]1O[C@H](CO)[C@@H](O)[C@H]1O` [Adenosine] cannot be ordered by CC50 at 24 h: greater than 20 µM for the first, greater than 50 µM for the second.

Compared with `CCOc1cccc(N)c1` [3-Ethoxyaniline], `CCCCCCc1ccc(N)cc1` [4-Hexylaniline] is lower in CC50 at 24 h: greater than 90 µM for the first, 81.3 µM for the second.

`O=C(O)c1ccc(O)c(O)c1` [3,4-Dihydroxybenzoic acid] and `COC(=O)c1c(C)cc(O)c(C)c1O` [Methyl 2,4-dihydroxy-3,6-dimethylbenzoate] cannot be ordered by CC50 at 24 h: greater than 90 µM for the first, greater than 90 µM for the second.

Going from `CC1(C)[C@H](C(=O)OCc2coc(Cc3ccccc3)c2)[C@@H]1/C=C1\CCSC1=O` [Kadethrin] to `CN1C[C@H](C(=O)N[C@]2(C)O[C@@]3(O)[C@@H]4CCCN4C(=O)[C@H](Cc4ccccc4)N3C2=O)C[C@@H]2c3cccc4[nH]cc(c34)C[C@H]21` [Dihydroergotamine], the CC50 at 24 h falls from greater than 90 µM to 19.3 µM.

Compared with `COc1ccc2cc3[n+](cc2c1OC)CCc1cc2c(cc1-3)OCO2` [Berberine chloride], `CCc1oc2ccccc2c1C(=O)c1cc(I)c(O)c(I)c1` [Benziodarone] is 3.6-fold lower in CC50 at 24 h: 88.5 µM for the first, 24.8 µM for the second.

`CCC(Cl)[N+](=O)[O-]` (stereo not shown) [1-Chloro-1-nitropropane] and `CCCCN=C=O` [Butyl isocyanate] cannot be ordered by CC50 at 24 h: greater than 100 µM for the first, greater than 90 µM for the second.

`O=C(O)C1(c2ccc3c(c2)OC[C@H](Cc2ccc(-c4ccccc4)cc2)[C@H]3O)CCCC1` [CP-105696] and `COC(=O)c1ccccc1C(=O)c1ccc(OCCN2CCCCC2)cc1` [Pitofenone hydrochloride] are within 1.5-fold of each other in CC50 at 24 h: 50.9 µM for the first, 42.7 µM for the second.

Going from `N#C[C@@H]1CC(F)(F)CN1C(=O)CNC1CC2CCC(C1)N2c1ncccn1` (stereo partly shown) [SSR162369] to `O=C(O[C@@H]1C[C@@H]2C[C@H]3C[C@H](C1)N2CC3=O)c1c[nH]c2ccccc12` [Dolasetron mesylate], the CC50 at 24 h falls from greater than 90 µM to 37.3 µM.

`CC(C)Cc1ccc([C@@H](C)C(=O)NS(C)(=O)=O)cc1` [Reparixin] and `Nc1ccc(S(=O)(=O)Nc2ncccn2)cc1` [Sulfadiazine] cannot be ordered by CC50 at 24 h: greater than 50 µM for the first, greater than 20 µM for the second.

`O=Cc1ccc(Cl)cc1` [4-Chlorobenzaldehyde] and `Cc1ccc(C=O)s1` [5-Methyl-2-thiophenecarboxaldehyde] cannot be ordered by CC50 at 24 h: greater than 90 µM for the first, greater than 90 µM for the second.

`CC(C)NCC(O)COc1ccccc1-n1cccc1` (stereo not shown) [Isamoltan] and `Cc1cc(C)c(C(=O)P(=O)(C(=O)c2c(C)cc(C)cc2C)c2ccccc2)c(C)c1` [(Phenylphosphoryl)bis[(2,4,6-trimethylphenyl)methanone]] cannot be ordered by CC50 at 24 h: greater than 50 µM for the first, greater than 90 µM for the second.

Compared with `CC1(C)OC[C@@H]2O[C@@]3(C(=O)O)OC(C)(C)O[C@H]3[C@@H]2O1` [Dikegulac], `C#C[C@]1(OC(C)=O)CC[C@H]2[C@@H]3CCC4=CC(=NO)CC[C@@H]4[C@H]3CC[C@@]21CC` (mixture of isomers) [Norgestimate] is lower in CC50 at 24 h: greater than 90 µM for the first, 30.6 µM for the second.

`COCN(COC)c1nc(N(COC)COC)nc(N(COC)COC)n1` [Hexa(methoxymethyl)melamine] and `CNC(=O)OCc1cccc(COC(=O)NC)n1` [Pyricarbate] cannot be ordered by CC50 at 24 h: greater than 90 µM for the first, greater than 50 µM for the second.

`C=CCCCCCCCCC(=O)OCC` [Ethyl undec-10-enoate] and `CC/C=C\CCCCCCCCCCOC(C)=O` [(Z)-11-Tetradecenyl acetate] cannot be ordered by CC50 at 24 h: greater than 90 µM for the first, greater than 90 µM for the second.

`COc1ccc2nc(N)sc2c1` [2-Amino-6-methoxybenzothiazole] and `CCCN[C@H]1CCc2nc(N)sc2C1` [Pramipexole dihydrochloride monohydrate] cannot be ordered by CC50 at 24 h: greater than 90 µM for the first, greater than 100 µM for the second.

Going from `C=CC(=C)CC/C=C(\C)CC/C=C(/C)C=O` [Orange terpenes] to `CC(=O)C(C)=O` [2,3-Butanedione], the CC50 at 24 h rises from 42.9 µM to greater than 90 µM.

First: Cc1c(N)nc([C@H](CC(N)=O)NC[C@H](N)C(N)=O)nc1C(=O)N[C@H](C(=O)N[C@H](C)[C@@H](O)[C@H](C)C(=O)N[C@H](C(=O)NCCc1nc(-c2nc(C(=O)NCCCN[C@@H](C)c3ccccc3)cs2)cs1)[C@@H](C)O)[C@@H](O[C@@H]1O[C@@H](CO)[C@@H](O)[C@H](O)[C@@H]1O[C@H]1O[C@H](CO)[C@@H](O)[C@H](OC(N)=O)[C@@H]1O)c1c[nH]cn1 [Peplomycin sulfate]
Second: CN[C@@H]1[C@@H](O[C@H]2O[C@H](CO)[C@@H](N)[C@H](O)[C@H]2O)O[C@H]2C[C@@H](N)[C@@H](O[C@H]3[C@H](O)[C@@H](O)[C@H](N)C[C@@H]3N)O[C@@H]2[C@@H]1O [Apramycin]
The CC50 at 24 h of the first is lower: 2.77 µM for the first, greater than 20 µM for the second.

`O=C(O)CCS` [3-Mercaptopropanoic acid] and `Cc1ncc(CO)c(CN)c1O` [Pyridoxamine dihydrochloride] cannot be ordered by CC50 at 24 h: greater than 90 µM for the first, greater than 50 µM for the second.

`CC1=CCC2C(C1)C2(C)C` (stereo not shown) [3-Carene] and `C=C1C[C@@H]2[C@H](CC[C@]3(C)C(=O)CC[C@@H]23)[C@@]2(C)C=CC(=O)C=C12` [Exemestane] cannot be ordered by CC50 at 24 h: greater than 90 µM for the first, greater than 50 µM for the second.

`CN1C(CSCC(F)(F)F)Nc2cc(Cl)c(S(N)(=O)=O)cc2S1(=O)=O` (stereo not shown) [Polythiazide] and `CCN(CC)c1c([N+](=O)[O-])cc(C(F)(F)F)c(N)c1[N+](=O)[O-]` [Dinitramine] cannot be ordered by CC50 at 24 h: greater than 50 µM for the first, 85.3 µM for the second.

`O=C1NC(=O)c2cccc3cccc1c23` [1H-Benzo[de]isoquinoline-1,3(2H)-dione] and `O=C1C(c2[nH]c3ccc(S(=O)(=O)O)cc3c2O)=Nc2ccc(S(=O)(=O)O)cc21` [C.I. Acid Blue 74] cannot be ordered by CC50 at 24 h: greater than 90 µM for the first, greater than 90 µM for the second.

`CCCCCCCC#N` [Octanenitrile] and `CCCCCCO` [1-Hexanol] cannot be ordered by CC50 at 24 h: greater than 90 µM for the first, greater than 90 µM for the second.

`CNC(=O)ON=C(C)SC` [Methomyl] gave a CC50 at 24 h greater than 90 µM.

Same assay, conditions: rat, gh3-tre-luc cells, AC50 (uM) modified / 1000, Tox21_110001=Tox21_111074; viability, 1 nM T3 present, 24 h

In the case of `CC(C)CCON=O` [3-Methylbutyl nitrite], the CC50 at 24 h was greater than 50 µM.

Same assay, conditions: rat, gh3-tre-luc cells, AC50 (uM) modified / 1000, Tox21_110001=Tox21_112659; viability, 1 nM T3 present, 24 h

For `COC1CC(=C(c2cccs2)c2cccs2)C[N+](C)(C)C1` (stereo not shown) [Timepidium bromide], the CC50 at 24 h was greater than 50 µM.

Same assay, conditions: rat, gh3-tre-luc cells, AC50 (uM) modified / 1000, Tox21_110001=Tox21_112829; viability, 1 nM T3 present, 24 h

Work on `C[C@H](CN1CCOCC1)C(C(=O)N1CCCC1)(c1ccccc1)c1ccccc1` [Dextromoramide tartrate] yielded a CC50 at 24 h greater than 100 µM.

Same assay, conditions: rat, gh3-tre-luc cells, AC50 (uM) modified / 1000, Tox21_110001=Tox21_200670; viability, 1 nM T3 present, 24 h

For `O=[N+]([O-])c1ccc(Cl)c(Cl)c1Cl` [2,3,4-Trichloronitrobenzene], the CC50 at 24 h was greater than 90 µM.

Same assay, conditions: rat, gh3-tre-luc cells, AC50 (uM) modified / 1000, Tox21_110001=Tox21_200686; viability, 1 nM T3 present, 24 h

With `COc1ccc2c(c1OC)C(=O)O[C@@H]2[C@H]1c2cc3c(cc2CCN1C)OCO3` [Hydrastine] the CC50 at 24 h was 6.92 µM.

Same assay, conditions: rat, gh3-tre-luc cells, AC50 (uM) modified / 1000, Tox21_110001=Tox21_200981; viability, 1 nM T3 present, 24 h

Compound `Clc1ccc2ccccc2c1` [2-Chloronaphthalene] has a CC50 at 24 h greater than 90 µM.

Same assay, conditions: rat, gh3-tre-luc cells, AC50 (uM) modified / 1000, Tox21_110001=Tox21_200983; viability, 1 nM T3 present, 24 h

Work on `CC(C)CCON=O` [3-Methylbutyl nitrite] yielded a CC50 at 24 h greater than 90 µM.

Same assay, conditions: rat, gh3-tre-luc cells, AC50 (uM) modified / 1000, Tox21_110001=Tox21_201325; viability, 1 nM T3 present, 24 h

`O=c1[nH]c2ccccc2c(=O)o1` [2H-3,1-Benzoxazine-2,4(1H)-dione] gave a CC50 at 24 h greater than 90 µM.

Same assay, conditions: rat, gh3-tre-luc cells, AC50 (uM) modified / 1000, Tox21_110001=Tox21_201511; viability, 1 nM T3 present, 24 h

`O=P(Oc1ccccc1)(Oc1ccccc1)Oc1ccccc1` [Triphenyl phosphate] showed a CC50 at 24 h greater than 90 µM.

Same assay, conditions: rat, gh3-tre-luc cells, AC50 (uM) modified / 1000, Tox21_110001=Tox21_201786; viability, 1 nM T3 present, 24 h

Work on `CCCC=NO` [Butanal oxime] yielded a CC50 at 24 h greater than 90 µM.

Same assay, conditions: rat, gh3-tre-luc cells, AC50 (uM) modified / 1000, Tox21_110001=Tox21_302247; viability, 1 nM T3 present, 24 h

Work on `CCC(Br)(CC)C(=O)NC(N)=O` [Carbromal] yielded a CC50 at 24 h greater than 90 µM.
